Reference: patent US12703718B2, “Compositions and compounds for co-delivery of uridine and ketoleucine” (PHARMA CINQ, LLC, priority 2021, dated 2026)
Where two headings read alike, the source gives them in different places.

Experiments:
[1] = test system: Female CD-1 mice treated with 3-nitropropionic acid (3-NP); assay: Protective effects in 3-NP mouse model of mitochondrial dysfunction (survival, weight loss); type: in vivo; conditions: for Survival at d 8: 3-NP 65 mg/Kg ip daily, survivors/10 mice
Experimental: A combination of uridine triacetate and ketoleucine was assessed in a model of progressive and lethal impairment of mitochondrial oxidative phosphorylation. 3-nitropropionic acid (3-NP), an irreversible inhibitor of Complex II of the mitochondrial electron transport chain. Daily administration of 3-NP results in progressive loss of mitochondrial reserve energy capacity, until the threshold for baseline energy requirements for survival is breached, resulting in mortality from both heart failure and central nervous system dysfunction.
In this study, uridine triacetate was administered as either by gavage as an oral bolus, or by incorporation into rodent chow at a concentration of 4% w/w. Similarly, ketoleucine (in the form of its sodium salt; NaKL) was administered in different groups by gavage or by dissolving it in drinking water. Sodium chloride (NaCl) was used as a control substance in some groups to account for the sodium load from the ketoleucine salt. • Chemical(s): Hydroxypropyl methyl cellulose (HPMC), cat #H3785, Lot #SLBS5701, CAS 9004-65-3, SIGMA-Aldrich. Uridine Triacetate for gavage (UTA), item, D000156, Lot #Q000001095, Almac Sciences, Uridine Triacetate in the diet (UTA), item & Lot #, D000302, 2148-070, Project #1314A0071A, recovery of material from R-104 Lot Q000003578, Almac Sciences, Sodium Chloride (NaCl), VWR, Cat #BDH9286-500G, Lot #1976C500, CAS 7647-14-5, 4-methyl-2-oxovaleric acid sodium salt (ketoLeucine: NaKL), cat #M326425, Lot #1-AWT-36-1, CAS4502-00-5, Toronto Research Chemicals, and 3-nitropropionic acid (3NP), cat #N5636, Lot #11101616, CAS 504-88-1, SIGMA-Aldrich. • Vehicle(s): UTA, NaKL, or NaCl in suspensions was prepared in 0.75% HPMC. NaCL or NaKL in the drinking water were prepared by dissolving in water. 3-NP solutions were prepared in water. • Dosing Formulation(s): Preparation: UTA was suspended in 0.75% HPMC at 50 mg/ml. NaKL will be suspended in 0.75% HPMC at 100 mg/ml, or included in the drinking water at 15.8 mg/ml. […]

[2] = oral; cited from earlier work
[3] = oral, mice; cited from earlier work
[4] = oral, humans; cited from earlier work

Row | Compound | Survival at d 8 ([1]; Group 1: 4% UTA diet, NaCl in drinking water, no gavage) | Survival at d 8 ([1]; Group 3: normal chow, regular water, UTA 1000 mg/Kg and NaCl by gavage 7 AM and 4 PM) | Protection against weight loss, comparison between groups ([1]; bolus (gavage) uridine triacetate with or without NaKL (Groups 3-5) versus 4% (w/w) uridine triacetate in chow (Groups 1 and 2)) | bioavailability [2] | bioavailability [3] | bioavailability [4]
1 | CC(=O)OC[C@H]1O[C@@H](n2ccc(=O)[nH]c2=O)[C@H](OC(C)=O)[C@@H]1OC(C)=O [UTA, 2′,3′,5,-tri-O-acetyluridine] | 0/10 | 1/10 | better protection against weight loss | approximately 50% |  | 
2 | O=c1ccn([C@@H]2O[C@H](CO)[C@@H](O)[C@H]2O)c(=O)[nH]1 [uridine] |  |  |  |  | approximately 7% | approximately 7%
